These results are taken from patent publication US20140378515A1, “IMMUNOSUPPRESSIVE COMPOUNDS” (priority 2013, published 2014).

The subject of data set [1] is ROS produced by human blood phagocytes. The experiment in a line: Oxidative burst, luminol-enhanced chemiluminescence in whole blood. Format: cell-based. Particulars: serum opsonized zymosan. As for the experimental part: Formation of the reactive oxygen species (ROS) in whole blood, during the oxidative burst was measured by the luminol-enhanced chemiluminescence assay. In brief, three concentrations of each compound (1.0, 10 and 100 μg/mL) were prepared in 25 μL of Hank's Balanced salt solution containing calcium chloride and magnesium sulfate (HBSS^++) in a half area 96-well white flat-bottomed plate (Sigma Aldrich, Steinheim, Germany) in a final volume of 100 μL. Then 25 μL of whole blood diluted 1:50 in suspension of HBSS^++ was added.
Positive and negative controls and blank wells were included. Cells and compounds were incubated for 30 minutes at 37° C., then 25 μL luminol [3-aminophthalhydrazide] (Research Organics Cleveland, Ohio, USA), were added into each well followed by 25 μL of serum opsonized zymosan (Saccharomyces cerevisiae origin) purchased from Fluka, Buchs (Switzerland) was added except for negative and blank wells. The ROS chemiluminescence kinetic was monitored with a luminometer from Labsystems (Helsinki, Finland), for 50 minutes in the repeated scan mode. Peak and total integral chemiluminescence readings were expressed in the relative light unit.

The subject of data set [2] is 3T3 NIH mouse embryo fibroblast cell line.
Experimental: (§1) The 3T3-NIH cells were suspended in Dulbecco's Modified Eagle's Medium (DMEM) formulated with 10% FBS. Using flat bottomed plates, cells were plated at a concentration of 6×10^4 cells/mL and incubated for 24 h at 37° C. and 5% CO2 environment. […] Following exposure to each compound, cell viability was assessed by using 0.5 mg/mL of MTT {3-(4,5-dimethylthiazol-2-yl)-2,5-diphenyltetrazolium bromide for 4 h followed by the removal of supernatant and addition of DMSO to solubilize the formazan complex. The plates were read at 540 nm after one minute shaking and readings were processed using MS Excel software. The results were expressed as means±SD of triplicate readings.
Data set [3] concerns NO produced by mouse macrophages J774.2 cell line. The experiment in a line: Nitrite accumulation in LPS-stimulated J774.2 macrophages (Griess method). Format: cell-based. Conditions: LPS-stimulated J774.2, 24 hours. The procedure:
The mouse macrophage cell line J774.2 obtained from ECACC, Salisbury, Wiltshire (UK) was cultured in T75 flasks in complete DMEM containing 10% fetal bovine serum and supplemented with 1% streptomycin/penicillin. Flasks were kept at 37° C. in the atmosphere of humidified air containing 5% CO2. Cell were then seeded in 24 well (10^6 cells/mL) and nitric oxide synthase (NOS-2) in the macrophages was induced by addition of 20 μg/mL E. coli lipopolysaccharide (DIFCO Laboratories, Michigan, USA). The test compounds were added at a concentration of 25 μg/mL soon after LPS stimulation and incubated at 37° C. in 5% CO2. Cell culture supernatant was collected after 24 hours. Nitrite accumulation in J774.2 cell culture supernatant was measured using the Griess method, where 50 μL of 1% sulphanilamide in 2.5% phosphoric acid, followed by 50 μL of 0.1% naphtyl-ethylene diamine dihydrochloride in 2.5% phosphoric acid were added to 50 μL culture medium. After 10 minutes of incubation at room temperature the absorbance at 550 nm was read. Micromolar concentrations of nitrite were calculated from standard curve constructed with sodium nitrite a reference compound. The results were expressed as means±SD of duplicate readings.
A general note: The Griess reaction detects nitrite, a stable product of nitric oxide.

In the next data set the test system is IL-2 production. The data set can be described thus: IL-2 production by PHA/PMA stimulated PBMCs (ELISA). Format: cell-based, human. Particulars: experimental IL-2 IC50 listed in Table 3. The procedure: The PBMCs were cultured in a 96-well flat-bottomed plate (1.0×10^5 cell/well) in the presence or absence of three concentrations of test compounds (1.0, 5.0 and 20 μg/mL), and phytohemagglutinin (PHA) phorbol myristate acetate (PMA) in a final concentration of 5 ng/mL and 20 ng/mL, respectively. After an incubation period of 18 h at 37° C. in a humidified atmosphere of 5% CO2 in air, the supernatant was collected for IL-2 determination. Interleukin-2 levels were measured by using enzyme-linked immunosorbent assay (ELISA) development kit (R&D systems, Minneapolis, Minn., USA). The assay was performed according to the manufacturer's instructions. Briefly, a 96-well flat-bottomed ELISA plate was coated with 4.0 μg/mL mouse anti-human IL-2, in PBS, pH 7.4. Then, re-combinant human IL-2 standards and culture supernatant samples were added and incubated for 2 h followed by washing steps and then the addition of biotinylated goat anti-human IL-2. After an incubation period of 2 h at room temperature, the plates were again washed and streptavidin conjugated horse raddish peroxidase was added and incubated for additional 20 min at room temperature. After the final washes, an enzyme substrate solution of H2O2 and tetra methyl benzidine (1:1 v/v) was added and the color was allowed to develop at room temperature in the dark. The plates were then read at 450 nm in a plate reader (DIAReader GMBH, Wr. Neudorf, Austria). The results were analyzed using Microsoft Excel.

For a further data set, the system named is T-cell proliferation. The data set can be described thus: T-cell proliferation assay (PHA-stimulated PBMNCs, 3H-thymidine incorporation). Conditions: PHA 5 μg/mL stimulated PBMNCs. On the set-up: unit not given here. Format: cell-based, human. The procedure: The diluted blood was then layered onto lymphocyte separation medium (MP Biomedicals, Inc., Ohio, USA) and centrifuged at 400 g for 20 min at 25° C. […] Plates were then incubated at 37° C. in a humidified atmosphere of 5% CO2 in air for 72 hours. To each well, 0.5 μCi [methyl ^3H]-thymidine (Amersham Place Little Chalfont, Buckinghamshire, UK) was added for an additional 18 hours. Cells were harvested using a cell harvester (Inotech, Dottikon, Switzerland), and incorporation and level of radioactivity was measured by a liquid scintillation counter (Beckman coulter, LS 6500, Fullerton, Calif., USA).
In general terms: Incorporation of labelled thymidine or its analogues reports DNA synthesis.

Data set [4] relates to NO produced by mouse macrophages J774.2 cell line. The data set can be described thus: Nitrite accumulation in LPS-stimulated J774.2 macrophages (Griess method). The data set is classed as cell-based.
Data set [5] deals with 3T3 NIH mouse embryo fibroblast cell line. The experiment in a line: MTT cytotoxicity assay. Conditions: for Cytotoxicity IC50: 3T3 NIH cells, 48 h; for interference with the growth of 3T3 cells: up to 20 μg/mL. Background: Tetrazolium assays rely on reduction of a dye to a coloured formazan, in cell work by metabolically active cells.
Experimental: as §1
The test system of another data set is IL-4 production. The experiment in a line: IL-4 production by PHA stimulated PBMNCs (ELISA). The data set is classed as cell-based, human. Particulars: 18 h. As for the experimental part: The PBMNCs were cultured in a 96-well flat-bottomed plate (2.0×10^6 cell/mL) in the presence or absence of three concentrations of test compounds (1.0, 5.0, and 25 μg/mL), and phytohemagglutinin (PHA) in a final concentration of 7.5 μg/mL. After an incubation period of 18 h at 37° C. in 5% CO2, supernatant was collected for IL-4 determination. Interleukin-4 levels were measured by using enzyme-linked immunosorbent assay (ELISA) kit (Diaclone, France). The assay was performed according to the manufacturer's instructions. Briefly, in a 96-well ELISA plate which was coated with monoclonal mouse anti-human IL-4, 100 μl recombinant human IL-4 standards and culture supernatants samples were added. The plates were incubated for 2 hours at room temperature and washed three times with wash buffer, followed by the addition of biotinylated goat anti-human IL-4 and further incubated for 1 hour at room temperature. The plates were again washed and streptavidin conjugated horse raddish peroxidase was added and incubated for an additional 20 minutes at room temperature. After three final washes, the enzyme substrate solution was added and incubated for 12 to 15 minutes to allow color development at room temperature in the dark. Then stop solution was added and the plates were read at 450 nm in a plate reader (DIAReader GMBH, Wr. Neudorf, Austria). The results were analyzed using Microsoft Excel.

Converted amounts (≈) assume the structure as drawn. Read-outs that look alike come from different tables or passages of the source.

As usually defined, the IC50 is the concentration needed to halve the response being measured. As for `COc1cccc(-c2nc3ccccc3s2)c1O` [Compound 2], the “IC50 (μg/mL) for phagocytes ROS” value in data set [1] worked out at 1.9 ± 0.6 µg/mL. The “Cytotoxicity IC50” value in data set [2] was more than 25 µg/mL. The “% of NO inhibited by 25 μg/mL of compound” value (shortened to “% of NO inhibited”) in data set [3] amounted to 28.9 ± 1.3%. In addition, the “IC50” value with IL-2 production is less than 1 µg/mL. Besides, in the data set with T-cell proliferation, the “IC50 T-cell proliferation” value is recorded as 2.97±0.3.
As to `Oc1ccc(-c2nc3ccccc3s2)cc1` [Compound 4], in data set [4], the “IC50 NO production” value was found to be 7.9 ± 0.9 µg/mL (≈ 34.8 µM). Also, the “IC50 (μg/mL) for phagocytes ROS” value in data set [1] is more than 100 µg/mL. Further, the “% of NO inhibited” value in data set [3] amounted to 56.1±0.6%. Further, in data set [5], the “Cytotoxicity IC50” value is more than 25 µg/mL and the “interference with the growth of 3T3 cells” value was “did not interfere with the growth of 3T3 cells”. Also, the “IC50” value in the data set with IL-2 production came out at 2.9 µg/mL (≈ 12.8 µM). For the same compound, in the data set on T-cell proliferation, the “IC50 T-cell proliferation” value was 2.3±0.1.
Take `Oc1ccc(O)c(-c2nc3ccccc3s2)c1` [Compound 8]: the “IC50 NO production” value in data set [4] is less than 5 µg/mL. In addition, in data set [1], the “IC50 (μg/mL) for phagocytes ROS” value is less than 1 µg/mL. For the same compound, in the data set on IL-4 production, the “IC50 IL-4 production” value amounted to 9.8 ± 0.6 µg/mL (≈ 40.3 µM). In data set [3], the “% of NO inhibited” value is 91.1±0.7%. In data set [5], the “Cytotoxicity IC50” value is more than 20 µg/mL and the “interference with the growth of 3T3 cells” value is recorded as “did not interfere with the growth of 3T3 cells”. Besides, in the data set on IL-2 production, the “IC50” value was less than 1 µg/mL. In the data set with T-cell proliferation, the “IC50 T-cell proliferation” value was 1.1±0.1.
